We go through 8 molecules from ChEMBL document CHEMBL1201862, “PubChem BioAssay data set” (2004).

Test in all cases: NCI tumour cell line growth inhibition, 48 h
The test system of assay [1] is SK-MEL-2.
In assay [2] the test system is EKVX.
Assay [3] relates to U-251.
Assay [4] relates to ACHN.
For assay [5], the system named is TK-10.
Assay [6] has as its system HCT-116.
Assay [7] has as its system RXF 393.
Assay [8] has as its system 786-0.
In assay [9] the test system is IGROV-1.
Assay [10] has as its system MCF7.
Assay [11] concerns UO-31.
Assay [12] concerns NCI-H522.
Assay [13] deals with SNB-19.
Assay [14] relates to SF-295.
For assay [15], the system named is NCI-H460.
Assay [16] has as its system OVCAR-4.
Assay [17] concerns SR.
Assay [18] relates to SK-MEL-5.
Assay [19] has as its system UACC-62.
Assay [20] relates to MDA-MB-435.

Each structure is given as a SMILES string.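 Five concentrations, 48 hours, 96-well plates. GI50 marks 50% less growth.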 Activity calls are given as the source filed them. No stated cut-off is given here; in the data, active = GI50 up to about 1.1 µM and inactive = higher.

On to `NC(=O)c1csc(-c2ccc(CO)o2)n1`, for which the GI50 in assay [1], in assay [2], in assay [3], in [4], in assay [5] and in assay [6] was > 100 µM (inactive) each time. Moreover, the GI50 in assay [7], in assay [8], in assay [9], in [10], in assay [11] and in assay [12] was > 100 µM (inactive) throughout. In addition, the GI50 in assay [13], in assay [14], in assay [15], in [16], in assay [17] and in [18] was > 100 µM (inactive) each time. Besides, the GI50 in assay [19] and in assay [20] was > 100 µM (inactive) in each case.

As to `Cc1ccc(N2CCN(CCC(=O)O)CC2)cc1`, the GI50 in assay [1], in assay [2], in [3], in assay [4], in assay [5] and in [6] was > 100 µM (inactive) in each case. In addition, the GI50 in assay [7], in assay [8], in [9], in assay [10], in [11] and in assay [12] was > 100 µM (inactive) in each case. In addition, the GI50 in assay [13] was > 100 µM (inactive); in assay [14], > 100 µM (inactive); in assay [15] it was > 100 µM (inactive); in [16] it was > 100 µM (inactive); in assay [17], 16.9 µM (inactive); in assay [18], > 100 µM (inactive). Further, the GI50 in assay [19] and in assay [20] was > 100 µM (inactive) in each case.

As to `COc1ccccc1/C=C\C(=O)C1COCN1` (stereo not given), the GI50 is 21.3 µM (inactive) in [1]; 19.4 µM (inactive) in assay [2]; 11.1 µM (inactive) in assay [3]; 10.7 µM (inactive) in [4]; 21.2 µM (inactive) in [5]; 6.97 µM (inactive) in assay [6]. Besides, the GI50 in [7] is 21 µM (inactive); in assay [8], 23.9 µM (inactive); in [9] it was 16.1 µM (inactive); in assay [10] it was 5.53 µM (inactive); in assay [11], 16.4 µM (inactive); in [12], 16 µM (inactive). Also, the GI50 was 13.1 µM (inactive) in assay [13]; 26.1 µM (inactive) in assay [14]; 30.9 µM (inactive) in assay [15]; 16.3 µM (inactive) in assay [16]; 1.95 µM (inactive) in assay [17]; 10.6 µM (inactive) in assay [18]. Further, the GI50 was 14.5 µM (inactive) in assay [19] and 6.9 µM (inactive) in assay [20].

As for `COc1cc(OC)c(/C=N\Nc2nc3ccccc3c(=O)n2-c2ccccc2)c(OC)c1`, the GI50 was 25.4 µM (inactive) in assay [1]; 26.9 µM (inactive) in assay [2]; 32.1 µM (inactive) in [3]; 18.1 µM (inactive) in [4]; 34.1 µM (inactive) in assay [5]; 20.1 µM (inactive) in assay [6]. Moreover, the GI50 in [7] was 23.7 µM (inactive); in assay [8], 17.7 µM (inactive); in [9], 40.6 µM (inactive); in assay [10] it was > 47.1 µM (inactive); in assay [11] it was > 48.8 µM (inactive); in [12], 26.6 µM (inactive). For the same molecule, the GI50 in assay [13] is 24 µM (inactive); in assay [14], 25.6 µM (inactive); in [15], 21.7 µM (inactive); in [16], 28.8 µM (inactive); in assay [17], 36.6 µM (inactive); in assay [18], 26.2 µM (inactive). The GI50 is 19.5 µM (inactive) in [19] and 24.5 µM (inactive) in [20].

Turning to `O=C(O)CCCN/C(=C1\C(=O)C(=O)N(c2ccccc2)C1=O)c1ccccc1`, the GI50 in assay [1], in assay [2], in assay [3], in assay [4], in [5] and in [6] was > 100 µM (inactive) in each case. The GI50 in assay [7], in [8], in assay [9], in assay [10], in assay [11] and in [12] was > 100 µM (inactive) throughout. In addition, the GI50 is > 100 µM (inactive) in assay [13]; > 100 µM (inactive) in [14]; > 100 µM (inactive) in [15]; 37.2 µM (inactive) in [16]; 20 µM (inactive) in assay [17]; > 100 µM (inactive) in [18]. The GI50 in [19] and in [20] was > 100 µM (inactive) throughout.

As to `CC/C=C/C(/C=C/C[C@]1(CC)C[C@H](CC)[C@H](CC(=O)O)OO1)CC` (stereo not given in full), the GI50 is 4.01 µM (inactive) in assay [1]; 1.76 µM (inactive) in [2]; 1.62 µM (inactive) in [3]; 1.91 µM (inactive) in assay [4]; 1.91 µM (inactive) in assay [5]; 2.46 µM (inactive) in assay [6]. Moreover, the GI50 is 2.19 µM (inactive) in [7]; 1.67 µM (inactive) in assay [8]; 0.353 µM (active) in assay [9]; 2.51 µM (inactive) in assay [10]; 0.494 µM (active) in assay [11]; 1.75 µM (inactive) in assay [12]. The GI50 is 5.69 µM (inactive) in assay [13]; 2.16 µM (inactive) in assay [14]; 1.96 µM (inactive) in assay [15]; 1.52 µM (inactive) in [16]; 0.421 µM (active) in assay [17]; 2.85 µM (inactive) in assay [18]. Also, the GI50 in [19] is 5.94 µM (inactive); in assay [20], 2.06 µM (inactive).

Consider `CCOC(=O)c1cc(-n2nnc3ccccc32)cn1C`, for which the GI50 in [1], in assay [2], in [3], in assay [4], in assay [5] and in assay [6] was > 10 µM (inactive) throughout. Moreover, the GI50 in assay [7], in [8], in [9], in assay [10], in assay [11] and in assay [12] was > 10 µM (inactive) each time. The GI50 was > 10 µM (inactive) in assay [13]; > 10 µM (inactive) in [14]; > 10 µM (inactive) in [15]; > 10 µM (inactive) in [16]; 1.32 µM (inactive) in [17]; > 10 µM (inactive) in assay [18]. The GI50 in [19] and in assay [20] was > 10 µM (inactive) in each case.

On to `COc1cc2cc(C(=O)N3CC(CCl)c4c3cc([N+](=O)[O-])c3ccccc43)[nH]c2c(OC)c1OC` (stereo not given), for which the GI50 is > 100 µM (inactive) in assay [1]; 16.7 µM (inactive) in assay [2]; 25.8 µM (inactive) in [3]; 11.2 µM (inactive) in [4]; > 100 µM (inactive) in assay [5]; 27 µM (inactive) in assay [6]. Moreover, the GI50 in [7] is > 89.3 µM (inactive); in [8] it was 29.3 µM (inactive); in [9] it was 33 µM (inactive); in assay [10] it was 17.3 µM (inactive); in assay [11], > 100 µM (inactive); in [12], 24.7 µM (inactive). Further, the GI50 in assay [13] was 87.7 µM (inactive); in assay [14], 14.7 µM (inactive); in assay [15] it was 4.68 µM (inactive); in [16], > 51.2 µM (inactive); in [17] it was 0.455 µM (active); in assay [18] it was 29.6 µM (inactive). Moreover, the GI50 in assay [19] is 15.9 µM (inactive); in assay [20], > 100 µM (inactive).
